Earlier results in PMC11728000, “Antitumor Activity and Multi-Target Mechanism of Phenolic Schiff Bases Bearing Methanesulfonamide Fragments: Cell Cycle Analysis and a Molecular Modeling Study” (International Journal of Molecular Sciences, 2024).

What was measured:
U251 = system: U251; set-up: method as in https://dtp.cancer.gov/dtpstandard/dwindex/index.jsp; conditions: ref https://dtp.cancer.gov/dtpstandard/dwindex/index.jsp; cited from earlier work
DU-145 = system: DU-145; set-up: method as in https://dtp.cancer.gov/dtpstandard/dwindex/index.jsp; conditions: ref https://dtp.cancer.gov/dtpstandard/dwindex/index.jsp; cited from earlier work
786-0 = system: 786-0; set-up: method as in https://dtp.cancer.gov/dtpstandard/dwindex/index.jsp; conditions: ref https://dtp.cancer.gov/dtpstandard/dwindex/index.jsp; cited from earlier work
BT-549 = system: BT-549; set-up: method as in https://dtp.cancer.gov/dtpstandard/dwindex/index.jsp; conditions: ref https://dtp.cancer.gov/dtpstandard/dwindex/index.jsp; cited from earlier work
HS 578T = system: HS 578T; set-up: method as in https://dtp.cancer.gov/dtpstandard/dwindex/index.jsp; conditions: ref https://dtp.cancer.gov/dtpstandard/dwindex/index.jsp; cited from earlier work
NCI-H23 = system: NCI-H23; set-up: method as in https://dtp.cancer.gov/dtpstandard/dwindex/index.jsp; conditions: ref https://dtp.cancer.gov/dtpstandard/dwindex/index.jsp; cited from earlier work
UACC-62 = system: UACC-62; set-up: method as in https://dtp.cancer.gov/dtpstandard/dwindex/index.jsp; conditions: ref https://dtp.cancer.gov/dtpstandard/dwindex/index.jsp; cited from earlier work
[1] = system: Ovarian Cancer subpanel tumor cell lines; conditions: cited from earlier work; for GI50: read-out: GI50, subpanel average, ref https://dtp.cancer.gov/dtpstandard/dwindex/index.jsp; for TGI, subpanel average: ref https://dtp.cancer.gov/dtpstandard/dwindex/index.jsp
HCC-2998 = system: HCC-2998; set-up: method as in https://dtp.cancer.gov/dtpstandard/dwindex/index.jsp; conditions: ref https://dtp.cancer.gov/dtpstandard/dwindex/index.jsp; cited from earlier work
[2] = system: Leukemia subpanel tumor cell lines; conditions: cited from earlier work; for GI50: read-out: GI50, subpanel average, ref https://dtp.cancer.gov/dtpstandard/dwindex/index.jsp; for TGI, subpanel average: ref https://dtp.cancer.gov/dtpstandard/dwindex/index.jsp
MDA-MB-231/ATCC = system: MDA-MB-231/ATCC; set-up: method as in https://dtp.cancer.gov/dtpstandard/dwindex/index.jsp; conditions: ref https://dtp.cancer.gov/dtpstandard/dwindex/index.jsp; cited from earlier work
K-562 = system: K-562; set-up: method as in https://dtp.cancer.gov/dtpstandard/dwindex/index.jsp; conditions: ref https://dtp.cancer.gov/dtpstandard/dwindex/index.jsp; cited from earlier work
M14 = system: M14; set-up: method as in https://dtp.cancer.gov/dtpstandard/dwindex/index.jsp; conditions: ref https://dtp.cancer.gov/dtpstandard/dwindex/index.jsp; cited from earlier work
HCT-15 = system: HCT-15; set-up: method as in https://dtp.cancer.gov/dtpstandard/dwindex/index.jsp; conditions: ref https://dtp.cancer.gov/dtpstandard/dwindex/index.jsp; cited from earlier work
MOLT-4 = system: MOLT-4; set-up: method as in https://dtp.cancer.gov/dtpstandard/dwindex/index.jsp; conditions: ref https://dtp.cancer.gov/dtpstandard/dwindex/index.jsp; cited from earlier work
SF-539 = system: SF-539; set-up: method as in https://dtp.cancer.gov/dtpstandard/dwindex/index.jsp; conditions: ref https://dtp.cancer.gov/dtpstandard/dwindex/index.jsp; cited from earlier work
NCI-H460 = system: NCI-H460; set-up: method as in https://dtp.cancer.gov/dtpstandard/dwindex/index.jsp; conditions: ref https://dtp.cancer.gov/dtpstandard/dwindex/index.jsp; cited from earlier work
MDA-MB-435 = system: MDA-MB-435; set-up: method as in https://dtp.cancer.gov/dtpstandard/dwindex/index.jsp; conditions: ref https://dtp.cancer.gov/dtpstandard/dwindex/index.jsp; cited from earlier work
NCI-H322M = system: NCI-H322M; set-up: method as in https://dtp.cancer.gov/dtpstandard/dwindex/index.jsp; conditions: ref https://dtp.cancer.gov/dtpstandard/dwindex/index.jsp; cited from earlier work
CCRF-CEM = system: CCRF-CEM; set-up: method as in https://dtp.cancer.gov/dtpstandard/dwindex/index.jsp; conditions: ref https://dtp.cancer.gov/dtpstandard/dwindex/index.jsp; cited from earlier work
SK-OV-3 = system: SK-OV-3; set-up: method as in https://dtp.cancer.gov/dtpstandard/dwindex/index.jsp; conditions: ref https://dtp.cancer.gov/dtpstandard/dwindex/index.jsp; cited from earlier work
MDA-MB-468 = system: MDA-MB-468; set-up: method as in https://dtp.cancer.gov/dtpstandard/dwindex/index.jsp; conditions: ref https://dtp.cancer.gov/dtpstandard/dwindex/index.jsp; cited from earlier work
SF-268 = system: SF-268; set-up: method as in https://dtp.cancer.gov/dtpstandard/dwindex/index.jsp; conditions: ref https://dtp.cancer.gov/dtpstandard/dwindex/index.jsp; cited from earlier work
[3] = system: Renal Cancer subpanel tumor cell lines; conditions: cited from earlier work; for GI50: read-out: GI50, subpanel average, ref https://dtp.cancer.gov/dtpstandard/dwindex/index.jsp; for TGI, subpanel average: ref https://dtp.cancer.gov/dtpstandard/dwindex/index.jsp
NCI-H522 = system: NCI-H522; set-up: method as in https://dtp.cancer.gov/dtpstandard/dwindex/index.jsp; conditions: ref https://dtp.cancer.gov/dtpstandard/dwindex/index.jsp; cited from earlier work
OVCAR-5 = system: OVCAR-5; set-up: method as in https://dtp.cancer.gov/dtpstandard/dwindex/index.jsp; conditions: ref https://dtp.cancer.gov/dtpstandard/dwindex/index.jsp; cited from earlier work
NCI/ADR-RES = system: NCI/ADR-RES; set-up: method as in https://dtp.cancer.gov/dtpstandard/dwindex/index.jsp; conditions: ref https://dtp.cancer.gov/dtpstandard/dwindex/index.jsp; cited from earlier work
SR = system: SR; set-up: method as in https://dtp.cancer.gov/dtpstandard/dwindex/index.jsp; conditions: ref https://dtp.cancer.gov/dtpstandard/dwindex/index.jsp; cited from earlier work
ACHN = system: ACHN; set-up: method as in https://dtp.cancer.gov/dtpstandard/dwindex/index.jsp; conditions: ref https://dtp.cancer.gov/dtpstandard/dwindex/index.jsp; cited from earlier work
COLO 205 = system: COLO 205; set-up: method as in https://dtp.cancer.gov/dtpstandard/dwindex/index.jsp; conditions: ref https://dtp.cancer.gov/dtpstandard/dwindex/index.jsp; cited from earlier work
SN12C = system: SN12C; set-up: method as in https://dtp.cancer.gov/dtpstandard/dwindex/index.jsp; conditions: ref https://dtp.cancer.gov/dtpstandard/dwindex/index.jsp; cited from earlier work
[4] = system: Colon Cancer subpanel tumor cell lines; conditions: cited from earlier work; for GI50: read-out: GI50, subpanel average, ref https://dtp.cancer.gov/dtpstandard/dwindex/index.jsp; for TGI, subpanel average: ref https://dtp.cancer.gov/dtpstandard/dwindex/index.jsp
IGROV1 = system: IGROV1; set-up: method as in https://dtp.cancer.gov/dtpstandard/dwindex/index.jsp; conditions: ref https://dtp.cancer.gov/dtpstandard/dwindex/index.jsp; cited from earlier work
[5] = system: Breast Cancer subpanel tumor cell lines; conditions: cited from earlier work; for TGI, subpanel average: ref https://dtp.cancer.gov/dtpstandard/dwindex/index.jsp
OVCAR-4 = system: OVCAR-4; set-up: method as in https://dtp.cancer.gov/dtpstandard/dwindex/index.jsp; conditions: ref https://dtp.cancer.gov/dtpstandard/dwindex/index.jsp; cited from earlier work
OVCAR-8 = system: OVCAR-8; set-up: method as in https://dtp.cancer.gov/dtpstandard/dwindex/index.jsp; conditions: ref https://dtp.cancer.gov/dtpstandard/dwindex/index.jsp; cited from earlier work
MCF-7 = system: MCF-7; set-up: method as in https://dtp.cancer.gov/dtpstandard/dwindex/index.jsp; conditions: ref https://dtp.cancer.gov/dtpstandard/dwindex/index.jsp; cited from earlier work
EKVX = system: EKVX; set-up: method as in https://dtp.cancer.gov/dtpstandard/dwindex/index.jsp; conditions: ref https://dtp.cancer.gov/dtpstandard/dwindex/index.jsp; cited from earlier work
SNB-75 = system: SNB-75; set-up: method as in https://dtp.cancer.gov/dtpstandard/dwindex/index.jsp; conditions: ref https://dtp.cancer.gov/dtpstandard/dwindex/index.jsp; cited from earlier work
[6] = read-out: LC50, subpanel average, ref https://dtp.cancer.gov/dtpstandard/dwindex/index.jsp

In the case of COc1cc2ncnc(Nc3ccc(F)c(Cl)c3)c2cc1OCCCN1CCOCC1 [Gefitinib, gefitinib], the GI50 (U251) is listed as 3160 nM, the GI50 (DU-145) is listed as 1580 nM and the GI50 (786-0) is listed as 3160 nM. The GI50 (BT-549) was 3160 nM, the GI50 (HS 578T) was 7940 nM and the GI50 (NCI-H23) was 2510 nM. The GI50 (UACC-62) was 2000 nM, the GI50 [1] was 3050 nM and the “TGI, subpanel average” value [1] was 33290 nM. For the same compound, the GI50 (HCC-2998) was 2510 nM, the GI50 [2] was 2560 nM and the “TGI, subpanel average” value [2] was 12070 nM. For the same compound, the GI50 (MDA-MB-231/ATCC) was 3980 nM, the GI50 (K-562) was 2510 nM and the GI50 (M14) was 2000 nM. The GI50 (HCT-15) was 3980 nM, the GI50 (MOLT-4) was 2000 nM and the GI50 (SF-539) was 10000 nM. The GI50 (NCI-H460) was 3160 nM, the GI50 (MDA-MB-435) was 3160 nM and the GI50 (NCI-H322M) was 63 nM. The GI50 (CCRF-CEM) was 398 nM, the GI50 (SK-OV-3) was 1000 nM and the GI50 (MDA-MB-468) was 12.6 nM. The GI50 (SF-268) was 2510 nM, the GI50 [3] was 1410 nM and the “TGI, subpanel average” value [3] was 12500 nM. The GI50 (NCI-H522) was 1000 nM, the GI50 (OVCAR-5) was 3980 nM and the GI50 (NCI/ADR-RES) was 1260 nM. For the same compound, the GI50 (SR) was 3160 nM, the GI50 (ACHN) was 158 nM and the GI50 (COLO 205) was 7940 nM. The GI50 (SN12C) was 1260 nM, the GI50 [4] was 5230 nM and the “TGI, subpanel average” value [4] was 18470 nM. The GI50 (IGROV1) was 3160 nM, the GI50 ([5]; read-out: GI50, subpanel average, ref https://dtp.cancer.gov/dtpstandard/dwindex/index.jsp) was 4670 nM and the “TGI, subpanel average” value [5] was 18620 nM.

In the case of CNC(=O)c1cc(Oc2ccc(NC(=O)Nc3ccc(Cl)c(C(F)(F)F)c3)cc2)ccn1 [Sorafenib, sorafenib], the GI50 (U251) is listed as 1990 nM, the GI50 (DU-145) is listed as 3160 nM and the GI50 (786-0) is listed as 3160 nM. For the same compound, the GI50 (BT-549) was 3160 nM, the GI50 (NCI-H23) was 1990 nM and the GI50 [1] was 2890 nM. For the same compound, the CC50 [1, 6] was 71300 nM, the “TGI, subpanel average” value [1] was 14430 nM and the GI50 (HCC-2998) was 3160 nM. For the same compound, the GI50 [2] was 1910 nM, the CC50 [2, 6] was > 100000 nM and the “TGI, subpanel average” value [2] was 42120 nM. The GI50 (OVCAR-4) was 3160 nM, the GI50 (OVCAR-8) was 3160 nM and the GI50 (MDA-MB-231/ATCC) was 1260 nM. The GI50 (K-562) was 3160 nM, the GI50 (M14) was 1990 nM and the GI50 (HCT-15) was 2510 nM. For the same compound, the GI50 (MOLT-4) was 3160 nM, the GI50 (NCI-H460) was 2510 nM and the GI50 (NCI-H322M) was 2510 nM. The GI50 (CCRF-CEM) was 1990 nM, the GI50 (SK-OV-3) was 2510 nM and the GI50 (MDA-MB-468) was 1990 nM. The GI50 (SF-268) was 2510 nM, the GI50 (MCF-7) was 2510 nM and the GI50 [3] was 2860 nM. For the same compound, the CC50 [3, 6] was 54800 nM, the “TGI, subpanel average” value [3] was 10860 nM and the GI50 (NCI-H522) was 1990 nM. The GI50 (OVCAR-5) was 3160 nM, the GI50 (EKVX) was 2510 nM and the GI50 (NCI/ADR-RES) was 2510 nM. The GI50 (SR) was 3160 nM, the GI50 (ACHN) was 2510 nM and the GI50 (COLO 205) was 1990 nM. For the same compound, the GI50 (SNB-75) was 3160 nM, the GI50 (SN12C) was 2510 nM and the GI50 [4] was 2190 nM. For the same compound, the CC50 [4, 6] was 38100 nM, the “TGI, subpanel average” value [4] was 7940 nM and the GI50 (IGROV1) was 2510 nM. For the same compound, the CC50 [5, 6] was 57300 nM and the “TGI, subpanel average” value [5] was 9350 nM.
